Experiments:
Vero E6 [1] = assay: cell viability relative to DMSO; higher = less toxic; details: 72 h
Caco-2 [2] = assay: as above; details: 72 h
U2OS [3] = assay: as above; details: 72 h
Calu-3 [4] = assay: as above; details: 72 h
HepG2 [5] = assay: as above; details: 72 h
[6] = test system: A549-ACE2 infected with SARS-CoV-2; assay: morphology score (similarity to uninfected cells); higher = more like uninfected cells; details: 24 h
A549-ACE2 [7] = assay: drug-induced phospholipidosis relative to tamoxifen; higher = more phospholipidosis
[8] = test system: A549-ACE2 infected with SARS-CoV-2; assay: SARS-CoV-2 infection rate relative to DMSO; higher = more infection; details: 24 h
A549-ACE2 [9] = assay: phospholipidosis EC50; higher = less potent phospholipidosis inducer
[10] = test system: A549-ACE2 infected with SARS-CoV-2; assay: cell count relative to DMSO; higher = less toxic; details: 24 h
Vero E6 [11] = assay: relative viability EC50 (midpoint between 100% and the lowest measured viability); higher = less toxic; details: 72 h
Caco-2 [12] = assay: as above; details: 72 h
U2OS [13] = assay: as above; details: 72 h
Calu-3 [14] = assay: as above; details: 72 h
HepG2 [15] = assay: as above; details: 72 h
Vero E6 [16] = assay: drug sensitivity score (DSS) for viability; higher = more toxic; extreme values may be limits of the assay; details: 72 h
Caco-2 [17] = assay: as above; details: 72 h
U2OS [18] = assay: as above; details: 72 h
Calu-3 [19] = assay: as above; details: 72 h
HepG2 [20] = assay: as above; details: 72 h

C[C@@H]1C[C@H]2[C@@H]3CCC4=CC(=O)C=C[C@]4(C)[C@@]3(Cl)[C@@H](O)C[C@]2(C)[C@@]1(OC(=O)c1ccco1)C(=O)CCl [MOMETASONE FUROATE]
Details	SARS-CoV-2 infection rate [%]	cell count [%]	cell viability [%]	morphology score	phospholipidosis EC50 [µM]
A549-ACE2 [9], 24 h	–	–	–	–	3.35
Caco-2 [2], 1 nM	–	–	91.3	–	–
Caco-2 [2], 10 nM	–	–	109	–	–
Caco-2 [2], 100 nM	–	–	85.6	–	–
Caco-2 [2], 1000 nM	–	–	96	–	–
Caco-2 [2], 10000 nM	–	–	83.1	–	–
Calu-3 [4], 1 nM	–	–	98.7	–	–
Calu-3 [4], 10 nM	–	–	101	–	–
Calu-3 [4], 100 nM	–	–	90.3	–	–
Calu-3 [4], 1000 nM	–	–	97.1	–	–
Calu-3 [4], 10000 nM	–	–	90.9	–	–
HepG2 [5], 1 nM	–	–	114	–	–
HepG2 [5], 10 nM	–	–	116	–	–
HepG2 [5], 100 nM	–	–	122	–	–
HepG2 [5], 1000 nM	–	–	97.4	–	–
HepG2 [5], 10000 nM	–	–	105	–	–
U2OS [3], 1 nM	–	–	98.5	–	–
U2OS [3], 10 nM	–	–	101	–	–
U2OS [3], 100 nM	–	–	94	–	–
U2OS [3], 1000 nM	–	–	102	–	–
U2OS [3], 10000 nM	–	–	92.8	–	–
Vero E6 [1], 1 nM	–	–	109	–	–
Vero E6 [1], 10 nM	–	–	100	–	–
Vero E6 [1], 100 nM	–	–	103	–	–
Vero E6 [1], 1000 nM	–	–	102	–	–
Vero E6 [1], 10000 nM	–	–	100	–	–
[6], 0.3 µM	–	–	–	0.19	–
[6], 3 µM	–	–	–	0.42	–
[6], 10 µM	–	–	–	0.6	–
[6], 30 µM	–	–	–	0.34	–
[8], 0.3 µM	99	–	–	–	–
[8], 3 µM	69	–	–	–	–
[8], 10 µM	28	–	–	–	–
[8], 30 µM	71	–	–	–	–
[10], 0.3 µM	–	97	–	–	–
[10], 3 µM	–	103	–	–	–
[10], 10 µM	–	108	–	–	–
[10], 30 µM	–	94	–	–	–

drug-induced phospholipidosis [%], A549-ACE2 [7]
Details	0.3 µM	0.833333 µM	3.33333 µM	6.66667 µM	10 µM	30 µM
24 h	10.4	17.5	33.2	53.3	54.9	51.9
48 h	5.23	13.8	27.7	41.1	38.5	41.2
72 h	-4	-3.08	16.9	30.4	39.5	29.6

Details	drug sensitivity score	relative viability EC50 [µM]
Caco-2 [12]	–	> 10
Caco-2 [17]	0.5	–
Calu-3 [14]	–	> 10
Calu-3 [19]	0	–
HepG2 [15]	–	> 10
HepG2 [20]	0	–
U2OS [13]	–	> 10
U2OS [18]	0	–
Vero E6 [11]	–	> 10
Vero E6 [16]	0	–

Cc1[nH]c(/C=C2\C(=O)Nc3ccc(S(=O)(=O)Cc4c(Cl)cccc4Cl)cc32)c(C)c1C(=O)N1CCC[C@@H]1CN1CCCC1
Details	SARS-CoV-2 infection rate [%]	cell count [%]	cell viability [%]	morphology score	phospholipidosis EC50 [µM]
A549-ACE2 [9], 24 h	–	–	–	–	3.45
A549-ACE2 [9], 48 h	–	–	–	–	3.61
A549-ACE2 [9], 72 h	–	–	–	–	3.54
Caco-2 [2], 1 nM	–	–	90.9	–	–
Caco-2 [2], 10 nM	–	–	99.2	–	–
Caco-2 [2], 100 nM	–	–	104	–	–
Caco-2 [2], 1000 nM	–	–	103	–	–
Caco-2 [2], 10000 nM	–	–	3.7	–	–
Calu-3 [4], 1 nM	–	–	100	–	–
Calu-3 [4], 10 nM	–	–	98.2	–	–
Calu-3 [4], 100 nM	–	–	109	–	–
Calu-3 [4], 1000 nM	–	–	100	–	–
Calu-3 [4], 10000 nM	–	–	4.3	–	–
HepG2 [5], 1 nM	–	–	102	–	–
HepG2 [5], 10 nM	–	–	96.9	–	–
HepG2 [5], 100 nM	–	–	102	–	–
HepG2 [5], 1000 nM	–	–	104	–	–
HepG2 [5], 10000 nM	–	–	3.3	–	–
U2OS [3], 1 nM	–	–	97.2	–	–
U2OS [3], 10 nM	–	–	100	–	–
U2OS [3], 100 nM	–	–	95.7	–	–
U2OS [3], 1000 nM	–	–	103	–	–
U2OS [3], 10000 nM	–	–	0.9	–	–
Vero E6 [1], 1 nM	–	–	99.9	–	–
Vero E6 [1], 10 nM	–	–	97.5	–	–
Vero E6 [1], 100 nM	–	–	101	–	–
Vero E6 [1], 1000 nM	–	–	91.1	–	–
Vero E6 [1], 10000 nM	–	–	57	–	–
[6], 0.1 µM	–	–	–	-0.01	–
[6], 0.3 µM	–	–	–	0.51	–
[6], 1 µM	–	–	–	0.6	–
[6], 3 µM	–	–	–	0.73	–
[8], 0.1 µM	109	–	–	–	–
[8], 0.3 µM	83	–	–	–	–
[8], 1 µM	74	–	–	–	–
[8], 3 µM	26	–	–	–	–
[10], 0.1 µM	–	98	–	–	–
[10], 0.3 µM	–	109	–	–	–
[10], 1 µM	–	108	–	–	–
[10], 3 µM	–	115	–	–	–

drug-induced phospholipidosis [%], A549-ACE2 [7]
Details	0.3 µM	0.833333 µM	3.33333 µM	6.66667 µM	10 µM
24 h	20.1	33	77.3	173	149
48 h	14.3	18.9	53.1	177	149
72 h	13.7	15.6	43.6	149	64.6

Details	drug sensitivity score	relative viability EC50 [µM]
Caco-2 [12]	–	3.36
Caco-2 [17]	5.1	–
Calu-3 [14]	–	3.17
Calu-3 [19]	5.4	–
HepG2 [15]	–	3.39
HepG2 [20]	5.1	–
U2OS [13]	–	3.35
U2OS [18]	5.3	–
Vero E6 [16]	3.6	–

COc1ccccc1C1(O)CCN(CCCn2c3ccccc3c3ccccc32)CC1 [NNC-05-2090]
Details	SARS-CoV-2 infection rate [%]	cell count [%]	cell viability [%]	morphology score	phospholipidosis EC50 [µM]
A549-ACE2 [9], 24 h	–	–	–	–	1.98
A549-ACE2 [9], 48 h	–	–	–	–	3.85
A549-ACE2 [9], 72 h	–	–	–	–	4.18
Caco-2 [2], 1 nM	–	–	97.4	–	–
Caco-2 [2], 10 nM	–	–	91.7	–	–
Caco-2 [2], 100 nM	–	–	109	–	–
Caco-2 [2], 1000 nM	–	–	83.1	–	–
Caco-2 [2], 10000 nM	–	–	68.4	–	–
Calu-3 [4], 1 nM	–	–	94.1	–	–
Calu-3 [4], 10 nM	–	–	99.9	–	–
Calu-3 [4], 100 nM	–	–	90.7	–	–
Calu-3 [4], 1000 nM	–	–	89.1	–	–
Calu-3 [4], 10000 nM	–	–	7.5	–	–
HepG2 [5], 1 nM	–	–	94.9	–	–
HepG2 [5], 10 nM	–	–	99.7	–	–
HepG2 [5], 100 nM	–	–	90.4	–	–
HepG2 [5], 1000 nM	–	–	99.9	–	–
HepG2 [5], 10000 nM	–	–	40.8	–	–
U2OS [3], 1 nM	–	–	99.4	–	–
U2OS [3], 10 nM	–	–	94.1	–	–
U2OS [3], 100 nM	–	–	102	–	–
U2OS [3], 1000 nM	–	–	94.6	–	–
U2OS [3], 10000 nM	–	–	82.9	–	–
Vero E6 [1], 1 nM	–	–	90.9	–	–
Vero E6 [1], 10 nM	–	–	97.5	–	–
Vero E6 [1], 100 nM	–	–	88.1	–	–
Vero E6 [1], 1000 nM	–	–	92.1	–	–
Vero E6 [1], 10000 nM	–	–	74.5	–	–
[6], 0.1 µM	–	–	–	0.12	–
[6], 0.3 µM	–	–	–	0.04	–
[6], 1 µM	–	–	–	0.29	–
[6], 3 µM	–	–	–	0.85	–
[8], 0.1 µM	98	–	–	–	–
[8], 0.3 µM	98	–	–	–	–
[8], 1 µM	86	–	–	–	–
[8], 3 µM	34	–	–	–	–
[10], 0.1 µM	–	98	–	–	–
[10], 0.3 µM	–	106	–	–	–
[10], 1 µM	–	109	–	–	–
[10], 3 µM	–	119	–	–	–

drug-induced phospholipidosis [%], A549-ACE2 [7]
Details	0.3 µM	0.833333 µM	3.33333 µM	6.66667 µM	10 µM
24 h	3.96	10.5	87.6	108	101
48 h	4.69	12.2	64.2	102	116
72 h	5.37	9.7	49.7	106	121

Details	drug sensitivity score	relative viability EC50 [µM]
Caco-2 [17]	3.4	–
Calu-3 [14]	–	2.19
Calu-3 [19]	7	–
HepG2 [15]	–	3.14
HepG2 [20]	3.2	–
U2OS [13]	–	> 10
U2OS [18]	0.9	–
Vero E6 [16]	1.9	–

CCCCCCCCc1ccc(CCC(N)(CO)CO)cc1 [fingolimod]
Details	SARS-CoV-2 infection rate [%]	cell count [%]	cell viability [%]	morphology score	phospholipidosis EC50 [µM]
A549-ACE2 [9], 24 h	–	–	–	–	3.36
A549-ACE2 [9], 48 h	–	–	–	–	3.04
A549-ACE2 [9], 72 h	–	–	–	–	5.67
Caco-2 [2], 1 nM	–	–	101	–	–
Caco-2 [2], 10 nM	–	–	100	–	–
Caco-2 [2], 100 nM	–	–	87.2	–	–
Caco-2 [2], 1000 nM	–	–	93.8	–	–
Caco-2 [2], 10000 nM	–	–	55.7	–	–
Calu-3 [4], 1 nM	–	–	101	–	–
Calu-3 [4], 10 nM	–	–	104	–	–
Calu-3 [4], 100 nM	–	–	102	–	–
Calu-3 [4], 1000 nM	–	–	94.9	–	–
Calu-3 [4], 10000 nM	–	–	8.4	–	–
HepG2 [5], 1 nM	–	–	107	–	–
HepG2 [5], 10 nM	–	–	105	–	–
HepG2 [5], 100 nM	–	–	99.5	–	–
HepG2 [5], 1000 nM	–	–	98	–	–
HepG2 [5], 10000 nM	–	–	0.4	–	–
U2OS [3], 1 nM	–	–	102	–	–
U2OS [3], 10 nM	–	–	105	–	–
U2OS [3], 100 nM	–	–	102	–	–
U2OS [3], 1000 nM	–	–	105	–	–
U2OS [3], 10000 nM	–	–	71.9	–	–
Vero E6 [1], 1 nM	–	–	105	–	–
Vero E6 [1], 10 nM	–	–	95.4	–	–
Vero E6 [1], 100 nM	–	–	105	–	–
Vero E6 [1], 1000 nM	–	–	101	–	–
Vero E6 [1], 10000 nM	–	–	84.7	–	–
[6], 0.3 µM	–	–	–	-0.2	–
[6], 3 µM	–	–	–	0.46	–
[6], 10 µM	–	–	–	0.74	–
[8], 0.3 µM	100	–	–	–	–
[8], 3 µM	64	–	–	–	–
[8], 10 µM	12	–	–	–	–
[10], 0.3 µM	–	100	–	–	–
[10], 3 µM	–	109	–	–	–
[10], 10 µM	–	114	–	–	–

drug-induced phospholipidosis [%], A549-ACE2 [7]
Details	0.3 µM	0.833333 µM	3.33333 µM	6.66667 µM	10 µM
24 h	9.06	18.8	83.3	124	138
48 h	8.05	10.9	84.5	114	135
72 h	4.63	6.35	49.7	102	130

Details	drug sensitivity score	relative viability EC50 [µM]
Caco-2 [17]	3.3	–
Calu-3 [14]	–	2.73
Calu-3 [19]	5.8	–
HepG2 [15]	–	3.02
HepG2 [20]	5.8	–
U2OS [18]	0.9	–
Vero E6 [11]	–	> 10
Vero E6 [16]	0.2	–

Reference: the supplement of paper PMC13380429
